From the Kinase Knowledgebase extract (Sharma et al. 2016)

Target: CDK2 (human) (UniProt P24941)
Assay: Enzyme Assay

Row | Structure (SMILES) | IC50
1 | N[C@H]1CC[C@H](Nc2nc(NCc3cccs3)c3ncn(C4CCCC4)c3n2)CC1 | 56 nM
2 | CC(C)n1cnc2c(NCCCC(=O)c3ncc[nH]3)nc(N[C@H]3CC[C@H](N)CC3)nc21 | 840 nM
3 | CC(C)n1cnc2c(NCC3CC3)nc(N[C@H]3CC[C@H](N)CC3)nc21 | 141 nM
4 | N[C@H]1CC[C@H](Nc2nc(NNCC(F)(F)F)c3ncn(C4CCCC4)c3n2)CC1 | 58 nM
5 | N[C@H]1CC[C@H](Nc2nc(NCCc3ccncc3)c3ncn(C4CCCC4)c3n2)CC1 | 69 nM

Now from value to molecule:

Row | IC50 | Structure (SMILES)
6 | 13 nM | CCNc1nc(N[C@H]2CC[C@H](N)CC2)nc2c1ncn2C1CCCC1
7 | 59 nM | N[C@H]1CC[C@H](Nc2nc(NCCCCc3ccccc3)c3ncn(C4CCCC4)c3n2)CC1
8 | 116 nM | N[C@H]1CC[C@H](Nc2nc(NCCCN3CCOCC3)c3ncn(C4CCCC4)c3n2)CC1
9 | 360 nM | CCCCCCCCNc1nc(N[C@H]2CC[C@H](N)CC2)nc2c1ncn2C1CCCC1
10 | 53 nM | CCCCCNc1nc(N[C@H]2CC[C@H](N)CC2)nc2c1ncn2C1CCCC1
11 | 18 nM | N[C@H]1CC[C@H](Nc2nc(NCCCO)c3ncn(C4CCCC4)c3n2)CC1
12 | 23 nM | CCCCNc1nc(N[C@H]2CC[C@H](N)CC2)nc2c1ncn2C1CCCC1
